Laboratory results from US4364926A, “Novel alkaline protease M3 method for the preparation thereof and dental caries-prophylactic composition containing the same” (Dainippon Pharmaceutical Co., Ltd., priority 1980, dated 1982).
Where a name gives a salt, the structure may show the parent alone. Read-outs that look alike come from different tables or passages of the source.

Tested on: alkaline protease M3 from Streptomyces globisporus B-1829 strain (ATCC 21553)
Test: Protease activity (casein hydrolysis) in the presence of additives
Assay type: biochemical
[1] = additive 10^-3 M, protease activity, no additive = 100

Structure (SMILES): NC(N)=S [Thiourea]
- Relative activity (%): 119%

Structure (SMILES): O=C1O[C@H]([C@@H](O)CO)C(O)=C1O [L-Ascorbic acid]
- Relative activity (%) [1]: 110%

Structure (SMILES): NNC(N)=O [Semicarbazide hydrochloride]
- Relative activity (%): 116%

Structure (SMILES): O=C(O)CCC(=O)O [Succinic acid]
- Relative activity (%) [1]: 113%

Structure (SMILES): O=C(O)CI [Iodoacetic acid]
- Effect by additive on activity (in words): substantially not inhibited
- Inhibition of protease activity (in words): substantially not inhibited
- Relative activity (%): 118%

Structure (SMILES): O=C1CCC(=O)N1Br [NBS, N--Bromosuccinimide]
- Relative activity (%) [1]: 85%
- Relative activity (%) (additive 10^-4 M, protease activity, no additive = 100): 0%
- Inhibition of protease activity (in words) (additive in an amount of 10^-4 M): completely inhibited
